Test results from patent US9776983B2, “Method for manufacturing fluoropolymers” (SOLVAY SOLEXIS S.p.A., priority 2008, dated 2017).
Several values for one entry are separate records, joined by “and”; a condition that tells them apart may be missing. Identical values can stand only once.

What was measured:
pKa of acid (D) = format: physicochemical; details: free acid (D)
Description: An aqueous solution composed of KMnO4 (238 mmol, 37.6 g), NaOH (238 mmol, 9.52 g) in 200 ml of distilled H2O was introduced in a 3-necked glass round-bottomed flask equipped with a magnetic stirrer, a dropping funnel, a thermometer and a tap water refrigerating column. The flask was heated to 80° C. with vigorous stirring and then 238 mmol; 50 g of product obtained from step 1a was slowly dropped into the basic oxidizing solution. Immediate exothermic release (+15° C.) was observed together with formation of MnO2 precipitate. After completion of the addition, solution was further stirred at 80° C. for 40 min. Crude reaction mixture was then cooled to room temperature, filtered, acidified to pH=1 with concentrated HCl (37% w/w) and extracted several times with CH2Cl2. The organic layer was dried over MgSO4, filtered and then the CH2Cl2 is evaporated.

[1] = Plasma levels and pharmacokinetic parameters after single oral (gavage) administration; format: in vivo, male Wistar (SPF-bred) rats; details: for elimination from blood compared with APFO: after single oral administration, C/Cmax versus time (FIG. 5); for time of maximal plasma concentration (tmax): single oral, Va, VIIa about 70 μmol/kg, XIII 73 umol/kg
Description: (§1) Compound Va and VIIa (Xa═NH4) were administered by single oral route (gavage) three male Wistar (SPF-bred) rats at dose levels of about 70 μmol/kg of dry ammonium salt, corresponding to the 21.2 mg/kg for compound Va and 19.9 mg/kg for compound VIIa. Blood sampling occurred 15 minutes before administration, at 4, 8, 12, 24, 72 and 168 hours after administration.
(§2) Compound XIII was dosed by single oral administration to 3 male Wistar rats at the dose of 73 umol/kg corresponding to 26.06 mg/kg. Blood sampling occurred at 15 minutes before administration, at 4, 8, 12, 24, 72 and 168 hours after administration. Urine samples were obtained at time intervals 0-12, 12-24, 24-72, 72-96, 96-168 hours after dosing. Plasma and urine concentration of XIII were determined by a validated analytical method.
Results of plasma concentrations for compound VIIa (Xa═NH4), Va (Xa═NH4), XIII (Xa═NH4) and APFO as a function of time are sketched in FIG. 5. This graph depicts ratio C/Cmax for compound Va (Xa═NH4) (●) compound VIIa (Xa═NH4) (◯), for compound XIII (Xa═NH4) (□) and APFO (▴), with C=instantaneous plasma concentration and Cmax=maximum plasma concentration, as a function of time (in hours).

[2] = Thermogravimetric analysis (TGA) in air; format: physicochemical; details: ammonium salt
Description: (§3) An organic solution composed of (D) (127 mmol; 30.6 g) and 200 ml of CH2Cl2 was introduced in a 2-necked glass round-bottomed flask equipped with a magnetic stirrer, a tap water refrigerating column and a bubbling tube. The mixture was cooled to 0° C. with vigorous stirring and a large excess of gaseous NH3 was bubbled through the organic mixture. Bubbling of NH3 (g) was pursued until completion of the precipitation of the ammonium salt. Crude mixture was filtered; solid was dried in a vacuum oven at 40° C. under reduced pressure (20 mmHg) for 2 hours. A flaky white solid is obtained. Isolated yield of compound (E) (VIIa, with Xa being NH4)=100%. […] FIG. 2 depicts the ^19F-NMR spectrum of compound (E).
Perfluorinated ester (G) was hydrolyzed in water at 0° C., yielding corresponding acid with quantitative yield. Evolved HF was neutralized with 1.5 mol eq. of KF, yielding solid KHF2, which was separated by filtration. After removal of solvent, the free acid (b.p.=160° C.) and CF3COOH (b.p.=72° C.) were separated by fractional distillation. Gaseous NH3 was then bubbled in a CH2Cl2 (200 ml) solution of the acid; ammonium salt (H) (formula Va, with Xa═NH4) was then recovered with a yield of 75% moles (with respect to alcohol intermediate (B)). […] FIG. 3 depicts the ^19F-NMR spectrum recorded on compound (H).
Acid (XIII, Xa═H) was solubilised in CH2Cl2 (200 ml); gaseous NH3 was then bubbled in said solution; ammonium salt (XIII, Xa═NH4) was then recovered with a yield of 75% moles (with respect to alcohol intermediate (L)). […] FIG. 7 depicts the ^19F-NMR spectrum recorded on ammonium salt (XIII, Xa═NH4).

[3] = Urine levels and urinary recovery after single oral administration; format: in vivo, male Wistar rats
Description: as §1, §2

Oral acute toxicity = format: in vivo
Description: as §3

[4] = plasma, male rats, single oral gavage, about 70 μmol/kg, individual values of the three animals, listed as VIIa (Xa = NH4)

| Structure (SMILES) | pKa (pKa of acid (D)) | elimination from blood compared with APFO [1] | tmax ([1]; plasma, male rats, single oral gavage, about 70 μmol/kg, individual values of the three animals) | AUC0-t [1, 4] | AUCinf. [1, 4] | Cmax [1, 4] | t1/2, z [1, 4] | reliable plasma half life ([1]; single oral gavage, about 70 μmol/kg, male Wistar rats) [h] | time of maximal plasma concentration (tmax) ([1]; male Wistar rats) [h] | TGA temperature at weight decrease of 10% [2] [°C] | TGA temperature at weight decrease of 50% [2] [°C] | urinary recovery at 168 hours after treatment ([3]; rats, single oral administration) | urinary half lives ([3]; rats, single oral administration, individual values) | LD50 (Oral acute toxicity) | mean urinary recovery in 168 hours after treatment ([3]; 3 male Wistar rats, single oral, 73 umol/kg (26.06 mg/kg)) |
| --- | --- | --- | --- | --- | --- | --- | --- | --- | --- | --- | --- | --- | --- | --- | --- |
| O=C(O)C1(F)OC(F)(F)OC1OC(F)(F)F (stereo not shown) [(D)] | 2.8 | – | – | – | – | – | – | – | – | – | – | – | – | – | – |
| N.O=C(O)C1(F)OC(F)(F)OC1OC(F)(F)F (stereo not shown) [Compound VIIa] | – | significantly faster elimination | 4, 4, 4 h | 135.608 µg·h/mL and 47.07 µg·h/mL and 114.562 µg·h/mL | 47.137 µg·h/mL and 115.916 µg·h/mL and 137.788 µg·h/mL | 11258 ng/mL and 14767 ng/mL and 18878 ng/mL | 4.8 h and 8.0 h and 8.9 h | 8.0 to 8.9 | 4 | 148 | 182 | 97-107% | 9 h and 13 h and 10 h | exceed 2000 mg/kg | – |
| N.O=C(O)C(F)(F)OC1(F)OC(F)(F)OC1(F)OC(F)(F)F (stereo not shown) [Compound XIII] | – | significantly faster elimination | – | – | – | – | – | – | 4 | 159 | 191 | – | – | – | around 82% |
